Reference: patent publication US11420958B2, “Aryl and heteroaryl substituted indole compounds” (BRISTOL-MYERS SQUIBB COMPANY, priority 2017, dated 2022)
pIC50: −log10 of the molar value.

Assays:
Format in all cases: cell-based
[1] = biological target: human TLR7 (Homo sapiens (Human), UniProt Q9NYK1); assay: TLR7 inhibition reporter assay (HEK-Blue, SEAP); conditions: HEK-Blue cells overexpressing human TLR7, gardiquimod 7.5 μM stimulation
Outline: (§1)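 Reporter cells, NF-κB/AP-1-driven SEAP; cmpd 0.05 nM–50 μM final, 30 min RT pre-treat; stim gardiquimod 7.5 μM (TLR7), R848 15.9 μM (TLR8), ODN2006 5 nM (TLR9); 22 h 37 °C; % inhibition of SEAP signal.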

[2] = biological target: human TLR8 (Homo sapiens (Human), UniProt Q9NR97); assay: TLR8 inhibition reporter assay (HEK-Blue, SEAP); conditions: HEK-Blue cells overexpressing human TLR8, R848 15.9 μM stimulation
human TLR8, sequence (Q9NR97 27-1041): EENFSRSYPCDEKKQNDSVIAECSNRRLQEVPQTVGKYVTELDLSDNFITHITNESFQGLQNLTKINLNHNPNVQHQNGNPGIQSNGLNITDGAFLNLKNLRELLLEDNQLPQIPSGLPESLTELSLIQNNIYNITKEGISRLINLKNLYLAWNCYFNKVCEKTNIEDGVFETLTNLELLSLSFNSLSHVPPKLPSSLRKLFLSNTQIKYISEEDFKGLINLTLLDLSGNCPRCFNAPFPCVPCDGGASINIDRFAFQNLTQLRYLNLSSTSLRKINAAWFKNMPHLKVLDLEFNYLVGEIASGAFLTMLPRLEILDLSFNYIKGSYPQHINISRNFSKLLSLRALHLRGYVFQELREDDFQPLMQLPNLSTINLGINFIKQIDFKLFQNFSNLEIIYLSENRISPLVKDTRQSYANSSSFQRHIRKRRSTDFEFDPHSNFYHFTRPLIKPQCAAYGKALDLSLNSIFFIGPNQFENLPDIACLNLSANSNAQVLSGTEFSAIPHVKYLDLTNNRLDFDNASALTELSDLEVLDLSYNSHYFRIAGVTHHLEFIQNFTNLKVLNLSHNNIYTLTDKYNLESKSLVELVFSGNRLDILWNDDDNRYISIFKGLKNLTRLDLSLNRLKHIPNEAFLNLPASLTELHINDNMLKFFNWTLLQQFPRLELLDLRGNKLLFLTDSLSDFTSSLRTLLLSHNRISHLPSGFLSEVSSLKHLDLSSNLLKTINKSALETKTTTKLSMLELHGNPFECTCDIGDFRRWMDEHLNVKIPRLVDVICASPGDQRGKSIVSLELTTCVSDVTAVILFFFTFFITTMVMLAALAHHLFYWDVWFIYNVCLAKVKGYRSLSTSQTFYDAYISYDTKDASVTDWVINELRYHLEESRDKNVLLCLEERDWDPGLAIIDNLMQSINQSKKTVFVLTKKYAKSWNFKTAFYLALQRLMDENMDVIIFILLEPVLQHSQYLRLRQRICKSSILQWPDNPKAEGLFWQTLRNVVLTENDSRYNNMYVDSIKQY
Outline: as §1

[3] = biological target: human TLR9 (Homo sapiens (Human), UniProt Q9NR96); assay: TLR9 inhibition reporter assay (HEK-Blue, SEAP); conditions: HEK-Blue cells overexpressing human TLR9, ODN2006 5 nM stimulation
human TLR9, sequence (Q9NR96 26-1032): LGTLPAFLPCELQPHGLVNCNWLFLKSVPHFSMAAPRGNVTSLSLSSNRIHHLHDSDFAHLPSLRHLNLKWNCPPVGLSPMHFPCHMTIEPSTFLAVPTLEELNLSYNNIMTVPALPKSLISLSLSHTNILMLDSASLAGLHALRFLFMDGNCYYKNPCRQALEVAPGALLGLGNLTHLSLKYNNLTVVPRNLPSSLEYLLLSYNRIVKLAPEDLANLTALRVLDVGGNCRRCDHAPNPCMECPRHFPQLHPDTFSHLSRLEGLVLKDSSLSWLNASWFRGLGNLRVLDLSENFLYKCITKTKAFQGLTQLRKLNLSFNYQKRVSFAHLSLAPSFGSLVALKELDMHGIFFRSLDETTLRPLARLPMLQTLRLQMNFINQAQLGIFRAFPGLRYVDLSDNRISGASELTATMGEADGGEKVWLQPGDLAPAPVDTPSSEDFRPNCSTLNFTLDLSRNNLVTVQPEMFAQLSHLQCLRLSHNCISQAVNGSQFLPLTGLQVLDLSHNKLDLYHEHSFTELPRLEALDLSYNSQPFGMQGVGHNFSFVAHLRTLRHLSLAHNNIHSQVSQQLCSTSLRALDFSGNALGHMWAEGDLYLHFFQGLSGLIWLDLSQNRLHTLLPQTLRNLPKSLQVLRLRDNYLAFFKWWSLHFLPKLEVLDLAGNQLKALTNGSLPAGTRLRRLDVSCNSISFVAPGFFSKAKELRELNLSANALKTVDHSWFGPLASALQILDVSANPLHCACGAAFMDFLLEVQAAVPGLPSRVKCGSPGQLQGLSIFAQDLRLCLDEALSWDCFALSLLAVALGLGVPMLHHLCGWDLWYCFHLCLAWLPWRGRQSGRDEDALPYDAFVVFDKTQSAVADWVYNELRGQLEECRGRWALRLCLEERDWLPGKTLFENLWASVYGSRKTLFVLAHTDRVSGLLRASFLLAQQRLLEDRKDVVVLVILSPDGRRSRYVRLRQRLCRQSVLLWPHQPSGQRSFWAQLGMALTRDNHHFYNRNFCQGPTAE
Outline: as §1

human TLR7, sequence (Q9NYK1 27-1049): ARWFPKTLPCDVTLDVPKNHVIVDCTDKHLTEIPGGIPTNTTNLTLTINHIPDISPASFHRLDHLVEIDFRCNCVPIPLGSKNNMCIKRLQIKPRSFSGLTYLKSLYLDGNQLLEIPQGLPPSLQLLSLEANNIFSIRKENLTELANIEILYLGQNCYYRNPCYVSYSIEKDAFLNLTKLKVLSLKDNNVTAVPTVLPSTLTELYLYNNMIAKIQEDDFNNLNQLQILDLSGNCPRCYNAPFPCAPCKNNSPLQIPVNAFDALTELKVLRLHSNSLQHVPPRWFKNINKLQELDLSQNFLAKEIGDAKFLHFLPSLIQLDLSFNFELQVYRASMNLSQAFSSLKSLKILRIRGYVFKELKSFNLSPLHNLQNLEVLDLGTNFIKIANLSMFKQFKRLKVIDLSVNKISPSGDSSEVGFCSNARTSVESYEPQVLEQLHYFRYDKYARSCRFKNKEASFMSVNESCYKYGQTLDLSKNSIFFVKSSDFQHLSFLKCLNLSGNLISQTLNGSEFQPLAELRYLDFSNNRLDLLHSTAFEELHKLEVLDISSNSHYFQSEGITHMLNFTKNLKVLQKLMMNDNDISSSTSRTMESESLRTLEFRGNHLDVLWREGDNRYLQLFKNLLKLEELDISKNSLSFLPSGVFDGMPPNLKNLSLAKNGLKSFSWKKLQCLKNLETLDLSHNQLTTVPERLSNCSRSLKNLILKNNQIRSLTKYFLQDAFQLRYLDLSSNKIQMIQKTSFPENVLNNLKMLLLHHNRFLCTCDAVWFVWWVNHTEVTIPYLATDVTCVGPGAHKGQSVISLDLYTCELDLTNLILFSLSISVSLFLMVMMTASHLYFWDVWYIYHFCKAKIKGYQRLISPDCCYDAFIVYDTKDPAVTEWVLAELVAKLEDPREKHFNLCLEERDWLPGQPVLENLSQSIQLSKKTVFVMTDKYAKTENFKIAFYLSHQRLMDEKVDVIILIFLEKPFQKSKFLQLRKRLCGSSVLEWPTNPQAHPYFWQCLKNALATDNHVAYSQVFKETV

| Compound | pIC50 [1] | pIC50 [2] | pIC50 [3] |
| --- | --- | --- | --- |
| Cc1cc(-c2[nH]c3ccc(-c4ccc(N5CCN(C)CC5)nc4)cc3c2C(C)C)cc(C)n1 [Example 301, 2-(2,6-dimethylpyridin-4-yl)-3-isopropyl-5-(6-(4-methylpiperazin-1-yl)pyridin-3-yl)-1H-indole] | 8.28 | 8.44 | 6.36 |
| Cc1cc(-c2[nH]c3ccc(-c4cc(NC(=O)OC(C)(C)C)c5nccn5c4)cc3c2C(C)C)cc(C)n1 [Example 303, tert-butyl (6-(2-(2,6-dimethylpyridin-4-yl)-3-isopropyl-1H-indol-5-yl)imidazo[1,2-a]pyridin-8-yl)carbamate] | 6.76 | 6.79 | 4.48 |
| Cc1cc(-c2[nH]c3ccc(-c4cccnc4)cc3c2C(C)C)cc(C)n1 [Example 304, 2-(2,6-dimethylpyridin-4-yl)-3-isopropyl-5-(pyridin-3-yl)-1H-indole] | 7.20 | 7.16 | 4.64 |
| Cc1cc(-c2[nH]c3ccc(-c4cc5c(s4)CN(C(=O)CN(C)C)CC5)cc3c2C(C)C)ccn1 [Example 305, 2-(dimethylamino)-1-(2-(3-isopropyl-2-(2-methylpyridin-4-yl)-1H-indol-5-yl)-4,7-dihydrothieno[2,3-c]pyridin-6(5H)-yl)ethan-1-one] | 7.68 | 7.89 | 5.39 |
| Cc1cc(-c2[nH]c3ccc(-c4ccc(N5CCN(C(C)C)CC5)nc4)cc3c2C(C)C)cc(C)n1 [Example 306, 2-(2,6-dimethylpyridin-4-yl)-3-isopropyl-5-(6-(4-isopropylpiperazin-1-yl)pyridin-3-yl)-1H-indole] | 8.32 | 8.32 | 6.54 |
| Cc1cc(-c2[nH]c3ccc(-c4cnc(N)cn4)cc3c2C(C)C)cc(C)n1 [Example 307, 5-(2-(2,6-dimethylpyridin-4-yl)-3-isopropyl-1H-indol-5-yl)pyrazin-2-amine] | 7.96 | 7.74 | 4.68 |
| Cc1cc(-c2[nH]c3ccc(-c4nc5c(s4)CNCC5)cc3c2C(C)C)cc(C)n1 [Example 308, 2-(2-(2,6-dimethylpyridin-4-yl)-3-isopropyl-1H-indol-5-yl)-4,5,6,7-tetrahydrothiazolo[5,4-c]pyridine] | 8.59 | 9.30 | 6.44 |
| Cc1cc(-c2[nH]c3ccc(-c4nc5c(s4)CN(CC(=O)N(C)C)CC5)cc3c2C(C)C)cc(C)n1 [Example 309, 2-(2-(2-(2,6-dimethylpyridin-4-yl)-3-isopropyl-1H-indol-5-yl)-6,7-dihydrothiazolo[5,4-c]pyridin-5(4H)-yl)-N,N-dimethylacetamide] | 7.62 | 8.46 | 5.25 |
| Cc1cc(-c2[nH]c3ccc(-c4cc5c(s4)CN(CC(=O)N(C)C)CC5)cc3c2C(C)C)ccn1 [Example 311, 2-(2-(3-isopropyl-2-(2-methylpyridin-4-yl)-1H-indol-5-yl)-4,7-dihydrothieno[2,3-c]pyridin-6(5H)-yl)-N,N-dimethylacetamide] | 6.84 | 7.62 | 5.47 |
| Cc1cc(-c2[nH]c3ccc(-c4nnc(C5CCCN(C(C)C)C5)o4)cc3c2C(C)C)ccn1 (stereo not drawn) [Example 312, 2-(3-isopropyl-2-(2-methylpyridin-4-yl)-1H-indol-5-yl)-5-(1-isopropylpiperidin-3-yl)-1,3,4-oxadiazole] | 7.44 | 8.62 | 6.20 |
| Cc1cc(-c2[nH]c3ccc(-c4ccc(C(=O)N5CCC(N(C)C)CC5)cc4)cc3c2C(C)C)ccn1 [Example 313, (4-(dimethylamino)piperidin-1-yl)(4-(3-isopropyl-2-(2-methylpyridin-4-yl)-1H-indol-5-yl)phenyl)methanone] | 7.89 | 8.33 | 6.49 |
| Cc1cc(-c2[nH]c3ccc(-c4nnc(C5CCCN(C(C)C)C5)o4)cc3c2CC(F)F)cc(C)n1 (stereo not drawn) [Example 314, 2-(3-(2,2-difluoroethyl)-2-(2,6-dimethylpyridin-4-yl)-1H-indol-5-yl)-5-(1-isopropylpiperidin-3-yl)-1,3,4-oxadiazole] | 7.37 | 7.96 | 6.97 |
| CNC(=O)CN1CCc2cc(-c3ccc4[nH]c(-c5ccnc(C)c5)c(C(C)C)c4c3)sc2C1 [Example 315, 2-(2-(3-isopropyl-2-(2-methylpyridin-4-yl)-1H-indol-5-yl)-4,7-dihydrothieno[2,3-c]pyridin-6(5H)-yl)-N-methylacetamide] | 7.03 | 7.77 | 4.32 |

Continued, values first:

| pIC50 [1] | pIC50 [2] | pIC50 [3] | Compound |
| --- | --- | --- | --- |
| 7.55 | 7.19 | < 4.30 | CNC(=O)c1ccc(-c2ccc3[nH]c(-c4cc(C)nc(C)c4)c(C(C)C)c3c2)cn1 [Example 316, 5-(2-(2,6-dimethylpyridin-4-yl)-3-isopropyl-1H-indol-5-yl)-N-methylpicolinamide] |
| 8.11 | 7.59 | < 4.30 | Cc1cc(-c2[nH]c3ccc(-c4ccc(C(N)=O)nc4)cc3c2C(C)C)cc(C)n1 [Example 317, 5-(2-(2,6-dimethylpyridin-4-yl)-3-isopropyl-1H-indol-5-yl)picolinamide] |
| 7.52 | 7.47 | 5.20 | Cc1cc(-c2[nH]c3ccc(-c4nnc(N)o4)cc3c2C(C)C)cc(C)n1 [Example 318, 5-(2-(2,6-dimethylpyridin-4-yl)-3-isopropyl-1H-indol-5-yl)-1,3,4-oxadiazol-2-amine] |
| 8.15 | 8.01 | 6.29 | Cc1cc(-c2[nH]c3ccc(-c4ccnc(N5CCN(C)CC5)c4)cc3c2C(C)C)cc(C)n1 [Example 319, 2-(2,6-dimethylpyridin-4-yl)-3-isopropyl-5-(2-(4-methylpiperazin-1-yl)pyridin-4-yl)-1H-indole] |
| 7.15 | 7.07 | 5.53 | Cc1cc(-c2[nH]c3ccc(-c4ccnc(N5CCNCC5)c4)cc3c2C(C)C)cc(C)n1 [Example 320, 2-(2,6-dimethylpyridin-4-yl)-3-isopropyl-5-(2-(piperazin-1-yl)pyridin-4-yl)-1H-indole] |
| 7.43 | 7.77 | 6.13 | Cc1cc(-c2[nH]c3ccc(-c4ccc(C(=O)N5CCC(NC(C)C)CC5)cc4)cc3c2C(C)C)ccn1 [Example 321, (4-(3-isopropyl-2-(2-methylpyridin-4-yl)-1H-indol-5-yl)phenyl)(4-(isopropylamino)piperidin-1-yl)methanone] |
| 7.89 | 7.57 | 4.34 | Cc1cc(-c2[nH]c3ccc(-c4ccc(CO)nc4)cc3c2C(C)C)cc(C)n1 [Example 322, (5-(2-(2,6-dimethylpyridin-4-yl)-3-isopropyl-1H-indol-5-yl)pyridin-2-yl)methanol] |
| 7.89 | 8.00 | 6.49 | Cc1cc(-c2[nH]c3ccc(-c4nnc(C5CCCNC5)[nH]4)cc3c2C(C)C)cc(C)n1 (stereo not drawn) [Example 323, 2-(2,6-dimethylpyridin-4-yl)-3-isopropyl-5-(5-(piperidin-3-yl)-4H-1,2,4-triazol-3-yl)-1H-indole] |
| 8.59 | 8.92 | 6.36 | Cc1cc(-c2[nH]c3ccc(-c4cc5c(s4)CNCC5)cc3c2C(C)C)cc(C)n1 [Example 324, 2-(2-(2,6-dimethylpyridin-4-yl)-3-isopropyl-1H-indol-5-yl)-4,5,6,7-tetrahydrothieno[2,3-c]pyridine] |
| 7.96 | 9.30 | 6.55 | Cc1cc(-c2[nH]c3ccc(-c4cc5c(s4)CN(C(C)C)CC5)cc3c2C(C)C)cc(C)n1 [Example 325, 2-(2-(2,6-dimethylpyridin-4-yl)-3-isopropyl-1H-indol-5-yl)-6-isopropyl-4,5,6,7-tetrahydrothieno[2,3-c]pyridine] |
| 7.64 | 7.89 | 6.52 | Cc1cc(-c2[nH]c3ccc(-c4ccnc(N5CCN(C(C)C)CC5)c4)cc3c2C(C)C)cc(C)n1 [Example 326, 2-(2,6-dimethylpyridin-4-yl)-3-isopropyl-5-(2-(4-isopropylpiperazin-1-yl)pyridin-4-yl)-1H-indole] |
| 7.59 | 8.00 | 6.67 | Cc1cc(-c2[nH]c3ccc(-c4nnc(C5CCCN(C(C)C)C5)o4)cc3c2CC(F)F)cc(C)n1 (stereo not drawn) [Example 327, 2-(3-(2,2-difluoroethyl)-2-(2,6-dimethylpyridin-4-yl)-1H-indol-5-yl)-5-(1-isopropylpiperidin-3-yl)-1,3,4-oxadiazole] |
| 7.32 | 7.52 | 6.69 | Cc1cc(-c2[nH]c3ccc(-c4nnc(C5CCCN(C(C)C)C5)o4)cc3c2CC(F)F)cc(C)n1 (stereo not drawn) [Example 328, 2-(3-(2,2-difluoroethyl)-2-(2,6-dimethylpyridin-4-yl)-1H-indol-5-yl)-5-(1-isopropylpiperidin-3-yl)-1,3,4-oxadiazole] |
| 7.70 | 8.48 | 4.33 | Cc1cc(-c2[nH]c3ccc(-c4nc5c(s4)CCN(CC(=O)N(C)C)C5)cc3c2C(C)C)cc(C)n1 [Example 329, 2-(2-(2-(2,6-dimethylpyridin-4-yl)-3-isopropyl-1H-indol-5-yl)-6,7-dihydrothiazolo[4,5-c]pyridin-5(4H)-yl)-N,N-dimethylacetamide] |
| 7.64 | 7.80 | 5.66 | CNC(=O)CN1CCc2cc(-c3ccc4[nH]c(-c5cc(C)nc(C)c5)c(C(C)C)c4c3)sc2C1 [Example 330, 2-(2-(2-(2,6-dimethylpyridin-4-yl)-3-isopropyl-1H-indol-5-yl)-4,7-dihydrothieno[2,3-c]pyridin-6(5H)-yl)-N-methylacetamide] |
